Active and inactive are the calls of the source. The rule behind the calls is not given here.
Key:
Carbonic anhydrase 1 = Carbonic anhydrase 1 (Homo sapiens, UniProt P00915); assay: Inhibition of recombinant human CA1 pre-incubated for 15 mins prior to testing by phenol red-based stopped-flow CO2 hydration assay
Carbonic anhydrase 12 = Carbonic anhydrase 12 (Homo sapiens, UniProt O43570); assay: Inhibition of recombinant human CA12 pre-incubated for 15 mins prior to testing by phenol red-based stopped-flow CO2 hydration assay
Carbonic anhydrase 12, sequence (O43570 whole entry): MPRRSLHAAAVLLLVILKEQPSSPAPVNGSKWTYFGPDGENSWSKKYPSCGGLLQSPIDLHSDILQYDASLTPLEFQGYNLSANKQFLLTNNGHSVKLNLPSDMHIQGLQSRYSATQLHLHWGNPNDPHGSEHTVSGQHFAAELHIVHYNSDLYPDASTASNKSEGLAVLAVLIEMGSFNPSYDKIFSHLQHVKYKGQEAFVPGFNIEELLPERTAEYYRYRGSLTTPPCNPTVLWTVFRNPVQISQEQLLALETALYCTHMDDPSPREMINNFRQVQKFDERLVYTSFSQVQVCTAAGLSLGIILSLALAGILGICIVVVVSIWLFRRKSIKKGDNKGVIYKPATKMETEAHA

Carbonic anhydrase 9 = Carbonic anhydrase 9 (Homo sapiens, UniProt Q16790); assay: Inhibition of recombinant human CA9 pre-incubated for 15 mins prior to testing by phenol red-based stopped-flow CO2 hydration assay
MCF7 [1] = assay: Antiproliferative activity against human MCF-7 cells assessed as cell survival at 100 uM after 72 hrs under normoxic condition by MTT assay; type: functional; conditions: for viability at 100 µM: read-out: Activity
MDA-MB-231 [2] = assay: Antiproliferative activity against human MDA-MB-231 cells assessed as reduction in cell viability at 100 uM after 72 hrs under hypoxic condition by MTT assay; type: functional
MDA-MB-231 [3] = assay: Antiproliferative activity against human MDA-MB-231 cells assessed as reduction in cell viability at 100 uM after 72 hrs under normoxic condition by MTT assay; type: functional
MCF7 [4] = assay: Antiproliferative activity against human MCF7 cells assessed as cell survival at 100 uM after 72 hrs under hypoxic condition by MTT assay; type: functional; conditions: for viability at 100 µM: read-out: Activity
[5] = Antiproliferative activity against human WI26VA4 cells assessed as reduction in cell viability after 72 hrs under normoxic condition by MTT assay; conditions: WI26VA4, 72 h
MCF7 [6] = assay: Antiproliferative activity against human MCF7 cells assessed as reduction in cell viability after 72 hrs under normoxic condition by MTT assay; conditions: MCF7, 72 h
[7] = Antiproliferative activity against human WI26VA4 cells assessed as reduction in cell viability after 72 hrs under hypoxic condition by MTT assay; conditions: WI26VA4, 72 h
MDA-MB-231 [8] = assay: Antiproliferative activity against human MDA-MB-231 cells assessed as reduction in cell viability after 72 hrs under hypoxic condition by MTT assay; conditions: MDA-MB-231, 72 h
MCF7 [9] = assay: Antiproliferative activity against human MCF7 cells assessed as reduction in cell viability after 72 hrs under hypoxic condition by MTT assay; conditions: MCF7, 72 h
MDA-MB-231 [10] = assay: Antiproliferative activity against human MDA-MB-231 cells assessed as reduction in cell viability after 72 hrs under normoxic condition by MTT assay; conditions: MDA-MB-231, 72 h

Carbonic anhydrase 1, sequence (P00915 whole entry): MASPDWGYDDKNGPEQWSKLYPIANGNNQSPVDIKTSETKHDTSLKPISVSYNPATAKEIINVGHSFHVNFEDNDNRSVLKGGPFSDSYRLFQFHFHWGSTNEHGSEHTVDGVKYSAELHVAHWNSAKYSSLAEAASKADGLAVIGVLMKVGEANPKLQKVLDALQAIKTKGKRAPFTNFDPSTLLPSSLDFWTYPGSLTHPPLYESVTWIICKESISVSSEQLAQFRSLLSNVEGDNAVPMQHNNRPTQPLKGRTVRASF

| SMILES | Ki (Carbonic anhydrase 1) | Ki (Carbonic anhydrase 12) | Ki (Carbonic anhydrase 9) | Activity (MCF7 [1]) | Activity (MDA-MB-231 [2]) | Activity (MDA-MB-231 [3]) | Activity (MCF7 [4]) | IC50 [5] | viability at 100 µM (MCF7 [1]) | IC50 (MCF7 [6]) | IC50 [7] | IC50 (MDA-MB-231 [8]) | IC50 (MCF7 [9]) | viability at 100 µM (MCF7 [4]) | IC50 (MDA-MB-231 [10]) |
| --- | --- | --- | --- | --- | --- | --- | --- | --- | --- | --- | --- | --- | --- | --- | --- |
| COC(=O)C(Nc1ccc(S(N)(=O)=O)cc1)C(=O)c1ccccc1OC (configuration not stated) | 829 nM | 26.5 nM | 25.6 nM |  |  |  |  |  |  |  |  |  |  |  |  |
| COc1ccc(C(=O)CNc2ccc(S(N)(=O)=O)cc2)cc1 | 124 nM | 81.7 nM | 10.1 nM | Active | inactive | inactive | Active |  |  |  |  |  |  |  |  |
| CCOC(=O)C(C(=O)Nc1ccc(S(N)(=O)=O)cc1)C(C)C (configuration not stated) | 56.9 nM |  | 32 nM | inactive | inactive | inactive | inactive |  |  |  |  |  |  |  |  |
| NS(=O)(=O)c1ccc(NC2CCN(c3nccs3)C2=O)cc1 (configuration not stated) | 138 nM | 18.8 nM | 36.8 nM | inactive | inactive | inactive | inactive |  |  |  |  |  |  |  |  |
| Cc1ccc(C(=O)CNc2ccc(S(N)(=O)=O)cc2)cc1 | 53.3 nM | 67.4 nM | 15.2 nM | inactive | inactive | inactive | inactive |  |  |  |  |  |  |  |  |
| CC(C)(C)C(=O)CNc1cccc(S(N)(=O)=O)c1 | 343 nM | 24.1 nM | 41.7 nM | inactive | inactive | inactive | inactive |  |  |  |  |  |  |  |  |
| Cc1ccc(N2C(=O)C(Cc3ccc(Cl)cc3)=C(Nc3cccc(S(N)(=O)=O)c3)C2=O)cc1 | > 10000 nM | 1070 nM | 635 nM |  |  |  |  | 22 µM | 10% | 14.9 µM | 35.6 µM | 36.8 µM | 15.3 µM | 10% | 37.2 µM |
| CCOC(=O)C(C(=O)Nc1cccc(S(N)(=O)=O)c1)C(C)C (configuration not stated) | 346 nM | 113 nM | 70.1 nM | inactive | inactive | inactive | inactive |  |  |  |  |  |  |  |  |
| COc1ccc(C(=O)CNc2cccc(S(N)(=O)=O)c2)cc1 | 920 nM | 189 nM | 54.3 nM | inactive | inactive | inactive | inactive |  |  |  |  |  |  |  |  |
| CC(C)C(C(=O)Nc1ccc(S(N)(=O)=O)cc1)C(=O)c1ccccc1 (configuration not stated) | 183 nM | 35.6 nM | 30.1 nM | inactive | inactive | inactive | inactive |  |  |  |  |  |  |  |  |
| CCOC(=O)C(Nc1ccc(S(N)(=O)=O)cc1)C(=O)c1ccccc1 (configuration not stated) | 245 nM | 21.8 nM | 18 nM | inactive | inactive | inactive | inactive |  |  |  |  |  |  |  |  |
| CC(C(=O)Nc1ccc(S(N)(=O)=O)cc1)C(=O)c1ccc(Cl)cc1 (configuration not stated) | 215 nM | 22.6 nM | 34.3 nM | Active | 30% | 30% | Active |  |  |  |  |  |  |  |  |
| COC(=O)C(Nc1ccc(S(N)(=O)=O)cc1)C(=O)OC | 166 nM |  | 58.1 nM | inactive | inactive | inactive | inactive |  |  |  |  |  |  |  |  |
| COCC(=O)C(Nc1ccc(S(N)(=O)=O)cc1)C(=O)OC (configuration not stated) | 69.8 nM | 24.7 nM | 64.1 nM | inactive | inactive | inactive | inactive |  |  |  |  |  |  |  |  |
| CCN(CC)C(=O)CNc1ccc(S(N)(=O)=O)cc1 | 243 nM | 33.2 nM | 89.1 nM | inactive | inactive | inactive | inactive |  |  |  |  |  |  |  |  |
| CCOC(=O)C(Nc1ccc(S(N)(=O)=O)cc1)c1ccc(Cl)cc1 (configuration not stated) | 135 nM | 63 nM | 54.3 nM | inactive | 30% | 30% | inactive |  |  |  |  |  |  |  |  |
| Cc1ccc(C(=O)CNc2cccc(S(N)(=O)=O)c2)cc1 | 294 nM | 208 nM | 63.9 nM | inactive | inactive | inactive | inactive |  |  |  |  |  |  |  |  |

| SMILES | Ki (Carbonic anhydrase 1) | Ki (Carbonic anhydrase 12) | Ki (Carbonic anhydrase 9) | Activity (MCF7 [1]) | Activity (MDA-MB-231 [2]) | Activity (MDA-MB-231 [3]) | Activity (MCF7 [4]) | IC50 [5] | viability at 100 µM (MCF7 [1]) | IC50 (MCF7 [6]) | IC50 [7] | IC50 (MDA-MB-231 [8]) | IC50 (MCF7 [9]) | viability at 100 µM (MCF7 [4]) | IC50 (MDA-MB-231 [10]) |
| --- | --- | --- | --- | --- | --- | --- | --- | --- | --- | --- | --- | --- | --- | --- | --- |
| NS(=O)(=O)c1ccc(NC2CCCCCC2=O)cc1 (configuration not stated) | 202 nM | 49.2 nM | 6.4 nM | inactive | 30% | 30% | inactive |  |  |  |  |  |  |  |  |
| NS(=O)(=O)c1ccc(NC2CCN(c3ccccc3)C2=O)cc1 (configuration not stated) | 62 nM | 24.9 nM | 9.5 nM | inactive | inactive | inactive | inactive |  |  |  |  |  |  |  |  |
| COC(=O)C(Nc1cccc(S(N)(=O)=O)c1)C(=O)c1ccc(OC)cc1 (configuration not stated) | 2550 nM |  | 91.9 nM | inactive | inactive | inactive | inactive |  |  |  |  |  |  |  |  |
| CC(C)OC(=O)C(Nc1ccc(S(N)(=O)=O)cc1)C(=O)OC(C)C | 105 nM | 61.4 nM | 28.1 nM | inactive | inactive | inactive | inactive |  |  |  |  |  |  |  |  |
| COc1ccccc1CC1=C(Nc2ccc(S(N)(=O)=O)cc2)C(=O)N(c2ccccc2)C1=O | > 10000 nM | 87.9 nM | 68 nM | Active |  |  | Active |  |  |  |  |  |  |  |  |
| COCCOC(=O)C(Nc1ccc(S(N)(=O)=O)cc1)C(=O)OCCOC | 85.8 nM | 45 nM | 36.8 nM | inactive | inactive | inactive | inactive |  |  |  |  |  |  |  |  |
| CCOC(=O)C(Nc1ccc(S(N)(=O)=O)cc1)C(=O)OCC | 135 nM | 57.2 nM | 52.4 nM | inactive | inactive | inactive | inactive |  |  |  |  |  |  |  |  |
| CCOC(=O)C(Nc1cccc(S(N)(=O)=O)c1)C(=O)c1ccccc1 (configuration not stated) | 1570 nM | 82.9 nM | 58.6 nM | inactive | 30% | 30% | inactive |  |  |  |  |  |  |  |  |
| Cc1ccc(N2C(=O)C(Cc3ccc(Cl)cc3)=C(Nc3ccc(S(N)(=O)=O)cc3)C2=O)cc1 | > 10000 nM | 128 nM | 81.9 nM |  |  |  |  | 21.9 µM | 10% | 10.8 µM | 26.2 µM | 15.6 µM | 11.5 µM | 10% | 16.6 µM |
| CCOC(=O)C(Nc1ccc(S(N)(=O)=O)cc1)c1ccc(OC)c(OC)c1 (configuration not stated) | 5880 nM | 35.7 nM | 6.5 nM | inactive | inactive | inactive | inactive |  |  |  |  |  |  |  |  |
| CCOC(=O)C(Nc1ccc(S(N)(=O)=O)cc1)C(=O)c1ccc(OC)cc1 (configuration not stated) | 314 nM | 16.5 nM | 12.5 nM | inactive | inactive | inactive | inactive |  |  |  |  |  |  |  |  |
| NS(=O)(=O)c1cccc(NCC(=O)N2CCN(Cc3ccc(Cl)cc3)CC2)c1 | 3950 nM | 36.1 nM | 116 nM | inactive | inactive | inactive | inactive |  |  |  |  |  |  |  |  |
| NS(=O)(=O)c1ccc(NC2CCN(c3cccc(C(F)(F)F)c3)C2=O)cc1 (configuration not stated) | 463 nM | 13.8 nM | 19.7 nM | inactive | inactive | inactive | inactive |  |  |  |  |  |  |  |  |
| CCN(CC)C(=O)CNc1cccc(S(N)(=O)=O)c1 | 70.6 nM | 83.7 nM | 45.9 nM | inactive | inactive | inactive | inactive |  |  |  |  |  |  |  |  |
| NS(=O)(=O)c1ccc(NCC(=O)N2CCN(Cc3ccc(Cl)cc3)CC2)cc1 | 146 nM | 11.3 nM | 21.2 nM | inactive | inactive | inactive | inactive |  |  |  |  |  |  |  |  |
| CCOC(=O)C(C(=O)Nc1ccc(S(N)(=O)=O)cc1)c1ccccc1 (configuration not stated) | 311 nM | 41.6 nM | 61.5 nM | inactive | inactive | inactive | inactive |  |  |  |  |  |  |  |  |
| CC(C)C(C(=O)Nc1cccc(S(N)(=O)=O)c1)C(=O)c1ccccc1 (configuration not stated) | 1360 nM | 59.6 nM | 71.1 nM | inactive | inactive | inactive | inactive |  |  |  |  |  |  |  |  |

From ChEMBL document CHEMBL4811239, “Insertion of metal carbenes into the anilinic N-H bond of unprotected aminobenzenesulfonamides delivers low nanomolar inhibitors of human carbonic anhydrase IX and XII isoforms” (Eur J Med Chem, 2021)
